Holding throughout (type): physicochemical
Series [1] in a line: Light resistance test of printed images with xenon lamp. As to conditions: grade of color difference ΔE; ink with 6 parts dye on glossy photo paper; xenon lamp 0.36 W/m^2, 60% RH, 24° C., 50 h. The source says:
Prepare the ink composition according to the formula described in Table 1 containing the products obtained in the above embodiment as the magenta colorant, and filter the ink composition with a […] membrane filter to obtain the aqueous magenta ink composition of the present invention. Add triethanolamine to adjust the ink composition pH to 8˜10 and add deionized water to make the total volume to reach 100 parts by weight.
Use an ink-jet printer (Epson 270 manufactured by Epson Company), glossy photo paper (Epson) and the above described ink compositions for ink-jet printing.
Irradiate the printed glossy photo paper manufactured by Canon and Epson with Xenon-lamp Weathering Test Chamber ZG-P (manufactured by China Surui Company) at 60% RH and 24° C. with illuminance of 0.36 W/m^2 for 50 h, and check the color difference (ΔE) before and after the test. The color difference (ΔE) is calculated from the differences of values of L*, a*, b* before and after the test in the above described color measurement system (Unterlab) by the followings formula: ΔE=((difference of L*)^2+(difference of a*)^2+(difference of b*)^2)^1/2.
Three grades will be divided for the evaluation based on the following benchmark: […]

Series [2] in a line: Evaluation of water solubility of the dye. The following applies: solubility of the dye in water. The source says: (D) Evaluation of Water Solubility of the Dye (g/100 g Water)
Series [3] can be described thus: Gas (ozone) resistance of the printed images. As to conditions: grade of color difference ΔE; 40 ppm ozone, 60% RH, 24° C., 6 h. The source says: Prepare the ink composition according to the formula described in Table 1 containing the products obtained in the above embodiment as the magenta colorant, and filter the ink composition with a […] membrane filter to obtain the aqueous magenta ink composition of the present invention. Add triethanolamine to adjust the ink composition pH to 8˜10 and add deionized water to make the total volume to reach 100 parts by weight. Use an ink-jet printer (Epson 270 manufactured by Epson Company), glossy photo paper (Epson) and the above described ink compositions for ink-jet printing. Place the printed images in the Ozone Weathering Test Chamber (manufactured by China Surui Company) at 40 ppm ozone, 60% RH and 24° C. for 6 h. Calculate the color difference (ΔE) before and after the test in the same manner as described in (1) above and evaluate it in 3 grades based on the following benchmark: [table]

Series [4] can be described thus: Evaluation of long-term stability of the dye in aqueous solvent systems. Also noted: key: ∘: No precipitation; Δ: Slight precipitation; x: Notable. As to conditions: 20 parts dye, 70 parts water, 10 parts ethylene glycol; 50° C. 7 d, then 0° C. 7 d; precipitation on filtering. On the procedure: Heat and dissolve the system consisting of 20 parts of dyes, 70 parts of water and 10 parts of ethylene glycol; after the solution cools down, store it airtight at a constant temperature of 50° C. for 7 d; cool it to 0° C. and store it at the same temperature for 7 d; filter the solution and evaluate it in 3 grades based on the following benchmark: […]

With `O=S(=O)([O-])c1cc(Nc2nc(Nc3ccc(/C=C/c4ccc(Nc5nc(Nc6cc(S(=O)(=O)[O-])cc7cc(S(=O)(=O)[O-])c(N=Nc8ccccc8)c(O)c67)nc(N6CCOCC6)n5)cc4S(=O)(=O)[O-])c(S(=O)(=O)[O-])c3)nc(N3CCOCC3)n2)c2c(O)c(N=Nc3ccccc3)c(S(=O)(=O)[O-])cc2c1.[Na+].[Na+].[Na+].[Na+].[Na+].[Na+]` [C.I. direct red 227, reference compound], the “UV resistance of printed images” value in series [1] is “x (ΔE > 20)”. Moreover, in series [2], the “Water solubility of the dye” value is “x (The solubility of the dye in water <15)”. Moreover, the “Ozone resistance of printed images” value in series [3] was “x (ΔE > 20)”. In addition, the “Long-term stability of the dye in aqueous solvent systems” value (“Long-term stability of the dye” for short) in series [4] is “Δ”.

Regarding `O=C(Nc1cc(S(=O)(=O)[O-])cc2cc(S(=O)(=O)[O-])c(N=Nc3ccc4cc(S(=O)(=O)CCOS(=O)(=O)[O-])ccc4c3S(=O)(=O)[O-])c(O)c12)c1ccccc1.[Na+].[Na+].[Na+].[Na+]` [C.I. reactive red 180, reference compound], the “UV resistance of printed images” value in series [1] was “x (ΔE > 20)”. The “Ozone resistance of printed images” value in series [3] was “x (ΔE > 20)”. Moreover, the “Long-term stability of the dye” value in series [4] is reported as “Δ”.

Turning to `O=C([O-])CCCS(=O)(=O)c1ccc(S(=O)(=O)[O-])c(Nc2cc(S(=O)(=O)[O-])c3[nH]c(=O)c(C(=O)[O-])c4c3c2C(=O)c2ccccc2-4)c1.[Na+].[Na+].[Na+].[Na+]` [Dm1], the “UV resistance of printed images” value in series [1] is recorded as “∘ (ΔE < 10)”. Besides, the “Water solubility of the dye” value in series [2] was “∘ (The solubility of the dye in water >30)”. Moreover, the “Ozone resistance of printed images” value in series [3] is on record as “∘ (ΔE < 10)”. Also, the “Long-term stability of the dye” value in series [4] is “∘”.

Consider `O=C([O-])CCCS(=O)(=O)c1ccc(S(=O)(=O)[O-])c(Nc2cc(S(=O)(=O)[O-])c3[nH]c(=O)c(C(=O)OCc4ccccc4)c4c3c2C(=O)c2ccccc2-4)c1.[Na+].[Na+].[Na+]` [Dm3], for which the “UV resistance of printed images” value in series [1] is listed as “∘ (ΔE < 10)”. In series [2], the “Water solubility of the dye” value was “∘ (The solubility of the dye in water >30)”. The “Ozone resistance of printed images” value in series [3] is “∘ (ΔE < 10)”. Also, the “Long-term stability of the dye” value in series [4] is reported as “∘”.

With `Cc1ccc(COC(=O)c2c3c4c(c(Nc5cc(S(=O)(=O)CCCC(=O)[O-])ccc5S(=O)(=O)[O-])cc(S(=O)(=O)[O-])c4[nH]c2=O)C(=O)c2ccccc2-3)cc1.[Na+].[Na+].[Na+]` [Dm5], in series [1], the “UV resistance of printed images” value is reported as “∘ (ΔE < 10)”. Also, the “Water solubility of the dye” value in series [2] is reported as “∘ (The solubility of the dye in water >30)”. In addition, the “Ozone resistance of printed images” value in series [3] is on record as “∘ (ΔE < 10)”. For the same compound, the “Long-term stability of the dye” value in series [4] is on record as “∘”.

Take `O=C([O-])CCCS(=O)(=O)c1ccc(S(=O)(=O)[O-])c(Nc2cc(S(=O)(=O)[O-])c3[nH]c(=O)c(C(=O)OCc4cccc([N+](=O)[O-])c4)c4c3c2C(=O)c2ccccc2-4)c1.[Na+].[Na+].[Na+]` [Dm7]: the “UV resistance of printed images” value in series [1] is on record as “∘ (ΔE < 10)”. The “Water solubility of the dye” value in series [2] is on record as “∘ (The solubility of the dye in water >30)”. The “Ozone resistance of printed images” value in series [3] was “∘ (ΔE < 10)”. For the same compound, the “Long-term stability of the dye” value in series [4] is “∘”.

Turning to `O=C([O-])CCCS(=O)(=O)c1cc(S(=O)(=O)[O-])c(Nc2cc(S(=O)(=O)[O-])c3[nH]c(=O)c(C(=O)[O-])c4c3c2C(=O)c2ccccc2-4)c(S(=O)(=O)[O-])c1.[Na+].[Na+].[Na+].[Na+].[Na+]` [Dp2], the “UV resistance of printed images” value in series [1] was “∘ (ΔE < 10)”. The “Water solubility of the dye” value in series [2] is on record as “∘ (The solubility of the dye in water >30)”. For the same compound, the “Ozone resistance of printed images” value in series [3] is on record as “∘ (ΔE < 10)”. Moreover, the “Long-term stability of the dye” value in series [4] is “∘”.

Regarding `O=C([O-])CCCS(=O)(=O)c1cc(S(=O)(=O)[O-])c(Nc2cc(S(=O)(=O)[O-])c3[nH]c(=O)c(C(=O)OCc4ccccc4)c4c3c2C(=O)c2ccccc2-4)c(S(=O)(=O)[O-])c1.[Na+].[Na+].[Na+].[Na+]` [Dp4], the “UV resistance of printed images” value in series [1] is “∘ (ΔE < 10)”. Moreover, the “Water solubility of the dye” value in series [2] was “∘ (The solubility of the dye in water >30)”. Besides, the “Ozone resistance of printed images” value in series [3] is given as “∘ (ΔE < 10)”. The “Long-term stability of the dye” value in series [4] is “∘”.

Take `O=C([O-])CCCS(=O)(=O)c1cc(S(=O)(=O)[O-])c(Nc2cc(S(=O)(=O)[O-])c3[nH]c(=O)c(C(=O)OCc4cccc(Cl)c4)c4c3c2C(=O)c2ccccc2-4)c(S(=O)(=O)[O-])c1.[Na+].[Na+].[Na+].[Na+]` [Dp10]: the “UV resistance of printed images” value in series [1] is on record as “∘ (ΔE < 10)”. Also, the “Water solubility of the dye” value in series [2] was “∘ (The solubility of the dye in water >30)”. Further, the “Ozone resistance of printed images” value in series [3] is “∘ (ΔE < 10)”. Moreover, the “Long-term stability of the dye” value in series [4] is on record as “∘”.

With `O=C([O-])CCCS(=O)(=O)c1cc(S(=O)(=O)[O-])c(Nc2cc(S(=O)(=O)[O-])c3[nH]c(=O)c(C(=O)OCc4cccc(S(=O)(=O)[O-])c4)c4c3c2C(=O)c2ccccc2-4)c(S(=O)(=O)[O-])c1.[Na+].[Na+].[Na+].[Na+].[Na+]` [Dp14], in series [1], the “UV resistance of printed images” value is “∘ (ΔE < 10)”. Also, the “Water solubility of the dye” value in series [2] is given as “∘ (The solubility of the dye in water >30)”. Besides, in series [3], the “Ozone resistance of printed images” value is recorded as “∘ (ΔE < 10)”. Moreover, the “Long-term stability of the dye” value in series [4] was “∘”.

Turning to `O=C([O-])CCCS(=O)(=O)c1cc(S(=O)(=O)[O-])c(Nc2cc(S(=O)(=O)[O-])c3[nH]c(=O)c(C(=O)OCc4cccc5ccccc45)c4c3c2C(=O)c2ccccc2-4)c(S(=O)(=O)[O-])c1.[Na+].[Na+].[Na+].[Na+]` [Dp17], in series [1], the “UV resistance of printed images” value is “∘ (ΔE < 10)”. For the same compound, the “Water solubility of the dye” value in series [2] is listed as “Δ (The solubility of the dye in water >15-20)”. Moreover, the “Ozone resistance of printed images” value in series [3] is listed as “∘ (ΔE < 10)”. Further, the “Long-term stability of the dye” value in series [4] was “∘”.

With `Cn1c(=O)c(C(=O)OCc2cccc3ccccc23)c2c3c(c(Nc4ccc(S(=O)(=O)[O-])cc4S(=O)(=O)[O-])ccc31)C(=O)c1ccccc1-2.[Na+].[Na+]` [Dye2, reference compound], the “UV resistance of printed images” value in series [1] is recorded as “∘ (ΔE < 10)”. In series [2], the “Water solubility of the dye” value is “Δ (The solubility of the dye in water >15-20)”. Further, the “Ozone resistance of printed images” value in series [3] is given as “∘ (ΔE < 10)”. Further, the “Long-term stability of the dye” value in series [4] is given as “Δ”.

These data come from patent publication US9011589B2, “Magenta dyes and their preparation methods and applications” (Dalian University of Technology, priority 2012, dated 2015).
